Experimental data as given in patent US20240050392A1, “COMPOSITIONS AND METHODS FOR IMPROVED TREATMENT OF PLATINUM-BASED CHEMOTHERAPEUTIC RESISTANT TUMORS” (THE REGENTS OF THE UNIVERSITY OF THE COLORADO, A BODY …, priority 2021, published 2024).

Legend:
[1] = system: KU1919, T24, and TCCSUP GemCis-resistant cells; experiment: Cell culture dose response (IncuCyte growth inhibition) of tosedostat with gemcitabine and/or cisplatin; format: cell-based, human
Description: One feature of NPEPPS is the availability of agents that inhibit its activity. Tosedostat, an orally available M1 aminopeptidase prodrug has antileukemic activity and is readily available for use. […] Tosedostat is antiproliferative, proapoptotic, and has antiangiogenic effects. The response of the KU1919, T24, and TCCSUP GemCis-resistant cells to increasing doses of tosedostat with gemcitabine, cisplatin, and gemcitabine plus cisplatin was measured. (FIGS. 3F-3H).
Cell Line Drug Treatments. Gemcitabine (Sigma) and cisplatin (Sigma) stocks were resuspended in 0.9% saline solution and tosedostat (Sigma and BOC Sciences) was resuspended in DMSO. All stocks solutions were stored protected from light and kept frozen until use. For cell culture dose response, cells were seeded in 96-well tissue culture plates with 500-2000 cells per well depending on growth rate and duration of experiment. Cells were seeded and allowed to attach overnight followed by replacing the media with fresh, pre-warmed media just prior to treatment. Drug dilutions were performed serially and using complete media (IMDM+10% FBS) and the associated drug treatments. Growth inhibition was measured using confluence estimates over time on the IncuCyte ZOOM (Essen Bioscience) over varying amounts of time depending on each experiment. Details for timing and replicates for each experiment are included in their respective figure legends.

[2] = system: bladder tumor-derived organoids; experiment: Tumor-derived organoid drug screening (alamarBlue viability, reseeding); format: cell-based, human
Description: Three independent organoid models derived from patients that failed between 4 to 6 cycles of neoadjuvant gemcitabine plus cisplatin chemotherapy (FIG. 10A). The organoids mimicked the morphological and genomic characteristics of the tumor from which they were derived (FIG. 10B). These organoids were treated with increasing doses of cisplatin and 20 μM of tosedostat.
Tumor-derived Organoids. Culture of the organoids. Human bladder tissue was obtained from the Erasmus MC Bladder Cancer Center, Rotterdam, the Netherlands. Bladder tumor-derived organoids from biopsies obtained through TURBT or cystectomy. Briefly, bladder tissues were washed with Advanced DMEM/F12 (Gibco) supplemented with 10 mM HEPES (Gibco), 1% GlutaMax (Gibco) and 100 μg/ml primocin (InvivoGen), henceforth Ad+++. Tissue was minced and incubated at 37° C. with the digestion solution (collagenase 2.5 mg/ml in EBSS) and isolated cells were passed through […] strainer (Falcon), washed with Ad+++ and seeded in 50 μl drops of BME (R&D system) containing 10000-15000 cells in 24 well suspension plates (Greiner). Bladder tumor organoids were cultured in a culture medium containing Ad+++ supplemented with 1×B-27 (Gibco), 1.25 mM N-acetylcysteine (Sigma), 10 mM nicotinamide, 20 μM TGFβ receptor inhibitor A83-01, 100 ng/ml recombinant human FGF10 (Peprotech), 25 ng/ml recombinant human FGF7 (Peprotech), 12.5 ng/ml recombinant human FGF2 (Peprotech), 10 μM Y27632 Rho Kinase (ROCK) Inhibitor (Sigma) and conditioned media for recombinant Rspondin (2.5% v/v), and Wnt3A (2.5% v/v). The medium was changed every three days. Organoids were passaged at a 1:3 to 1:6 ratio every 7 days using cell dissociation solution-non enzymatic (Sigma) and plated in fresh BME matrix droplets.
Drug screening. Organoids were collected 7 days after passaging, passed through a […] strainer and 1000 organoids were seeded per well of a 48-well plate in BME matrix droplets. After 24 hours cisplatin (Sigma) resuspended in PBS was added at different concentrations (2, 10, 25, and 50 μM) with or without tosedostat (20 μM) (Tocris) resuspended in DMSO. All wells were adjusted to contain less than 0.7% DMSO. Organoids were cultured for the first 6 days in the presence of drugs followed by drug withdrawal, where organoids were grown in organoid culture media for 10 days. The entire content of the wells in different treatment groups was collected, washed and reseeded after disaggregation in fresh BME, and cultured for 6 days. Cell viability was assayed using alamarBlue (Invitrogen) according to the manufacturer's instructions after 6 days of drug incubation, 10 days of drug withdrawal, and 6 days post reseeding. Viability data was normalized using organoid wells treated with vehicle control.

KU1919 and T24 cells = experiment: Intracellular carboplatin measurements with NPEPPS and LRRC8A knockdown; format: cell-based, human; settings: KU1919 and T24 parental and GemCis cells
[3] = active form, accumulates in cells; cited from earlier work
[4] = system: KU1919-GemCis and KU1919 parental cells; experiment: Drug dose response with NPEPPS knockdown or overexpression; format: cell-based, human

## CC(C)C[C@@H](C(=O)N[C@H](C(=O)OC1CCCC1)c1ccccc1)[C@H](O)C(=O)NO [tosedostat]
[1]; increasing doses of tosedostat with cisplatin
  combined effect on cell growth: strongest combined effect
[1]; increasing doses of tosedostat with gemcitabine
  combined effect on cell growth: little to no effect
[1]; increasing doses of tosedostat with gemcitabine plus cisplatin
  combined effect on cell growth: strongest combined effect
[2]; 20 μM tosedostat in combination with 2 μM and 10 μM cisplatin
  organoid growth: significantly decreased organoid growth
[2]; tosedostat alone, 20 μM
  organoid growth: minor effect on organoid growth

## N.N.O=C([O-])C1(C(=O)[O-])CCC1.[Pt+2] [carboplatin]
KU1919 and T24 cells
  NPEPPS-mediated import pattern of carboplatin compared with cisplatin: the same patterns were found

## CC(C)C[C@@H](C(=O)N[C@H](C(=O)O)c1ccccc1)[C@H](O)C(=O)NO [CHR-79888]
[3]
  membrane permeability: poorly membrane-permeable

## Nc1ccn([C@@H]2O[C@H](CO)[C@@H](O)C2(F)F)c(=O)n1 [gemcitabine]
[4]; KU1919-GemCis cells, stable NPEPPS shRNA knockdown
  effect of NPEPPS knockdown on drug response: not gemcitabine alone
[4]; KU1919 parental lines overexpressing NPEPPS
  effect of NPEPPS overexpression on drug response: not gemcitabine
